Patent US6509027B2, “Injectable pharmaceutical composition comprising coated particles of camptothecin” (priority 2001, dated 2003)

What was measured:
[1] = system: A375 human melanoma xenografts; assay: A375 human melanoma xenograft study 1, tumor growth delay method; format: in vivo, athymic nude mice
Excerpt: The following study evaluates two intravenous formulations according to the present invention against human tumor xenografts in athymic nude mice. The study used the A375 human melanoma xenograft model to compare the in vivo antitumor efficacy of I.V. 9-nitro-camptothecin, in vehicles containing IDD-P which provides a particulate suspension of 9-nitro-camptothecin, and IDD-D which provides a droplet suspension of 9-nitro-camptothecin, to the efficacy of oral 9-nitro-camptothecin and intraperitoneal CAMPTOSAR®, HYCAMTIN®, and DTIC®. Examples 1 and 2 describe the compositions of IDD-P (FIG. 1; formulation 1-F) and IDD-D respectively.
In order to assess antitumor efficacy, groups of athymic nude mice (n=10) bearing ˜72-mg A375 melanomas were treated intravenously on the 5/2/5 schedule with 9-nitro-camptothecin in IDD-P at 3.0 mg/kg or 1.5 mg/kg and 9-nitro-camptothecin in IDD-D at 2.0 mg/kg or 1.0 mg/kg.
Female nude mice were 16 weeks of age (NCR-nuJBr; Taconic Farms) for the A375 study. The mice were fed ad libitum water (reverse osmosis, 1 ppm Cl) and autoclaved Prolab NIH-31 M/5% Rodent Diet consisting of 18% protein, 5% fat, 6% fiber, and 8% ash. Mice were housed in static microisolators on a 12-hour light cycle at 21-22° C. (70-72° F.) and 40%-60% humidity. The animal care and use program is AAALAC International accredited and specifically follows and complies with the recommendation of the National Research Council's Guide for the Care and Use of Laboratory Animals.
An A375 melanoma fragment (1 mm 3) was implanted subcutaneously in the flank of each nude mouse. When the tumors reached the 60-112 mg size range, the mice were sorted into treatment groups (on Day 1) such that the group mean tumor sizes ranged from 71.3 mg-72.5 mg. Estimated tumor weight was calculated using the formula: [formula]
IDD-P with a mean particle size of […] and IDD-D with a mean particle size of […] were prepared for the study by RTP Pharma Inc. For this, the 9-nitro-camptothecin suspensions were diluted with water and vehicle to provide doses of 3 mg/kg and 1.5 mg/kg in 33% IDD-P, and doses of 2 mg/kg and 1 mg/kg in 100% and 50% IDD-D, respectively. After dilution, 9-nitro-camptothecin suspensions were mixed thoroughly by gentle agitation and stored at 2-8° C. For its oral formulation, 9-nitro-camptothecin was dissolved in DMA (N,N-dimethylacetamide, SIGMA) and diluted with D5W to yield a final DMA concentration of 3%. CAMPTOSAR®, DTIC®, and HYCAMTIN® were obtained as the marketed drugs and solutions were prepared fresh on the day of dosing. […]
The tumor growth delay (TGD) method was used to assess efficacy. Tumor dimensions were measured twice weekly until the experiment was terminated on Day 62. […]

[2] = Evaluation of toxicity in the A375 melanoma study; format: in vivo, athymic nude mice; settings: Group 7: 150 mg/kg I.P., qd×5
Experimental: Volumes of 0.20 ml per 20-g mouse, body-weight adjusted, were administered once daily. Tumor-bearing athymic nude mice were matched on Day 1 into 13 groups of ten animals and drug administration was initiated. The I.V. formulations of 9-nitro-camptothecin were given once daily on a 5/2/5 schedule as shown in the protocol summary shown in FIG. 4. Oral 9-nitro-camptothecin doses were given on a q3d×4 schedule (Days 1, 4, 8, and 11). Three reference drugs were administered I.P.: CAMPTOSAR® was given in three doses at weekly intervals (qwk×3); HYCAMTIN® was given in four doses at four-day intervals (q4d×4); and DTIC® was given in five consecutive daily doses (qd×5). The tumor growth control group for these reference treatments received no treatment (Group 1). The 9-nitro-camptothecin vehicle: 33.3% IDD-P, 100% IDD-D, and 3% DMA, was administered to vehicle control Groups 2-4, respectively.
The maximum tolerated dose (MTD), as defined by the NCI, is the highest dose at which no more than 10% of the animals die and the group mean body-weight loss is no more than 20%. Body weights were measured daily for four or five days and then twice weekly thereafter until the experiments were terminated on Day 62 of the study. […] Because mice are not tagged for MTD studies, only the mean group body weights recorded in the appended raw data are significant in those studies.

[3] = i.v., clinical trials; cited from earlier work
[4] = target: human serum albumin (HSA) (Homo sapiens, UniProt P02768); settings: PBS at pH 7.4; cited from earlier work
Sequence of human serum albumin (HSA) (P02768 25-609): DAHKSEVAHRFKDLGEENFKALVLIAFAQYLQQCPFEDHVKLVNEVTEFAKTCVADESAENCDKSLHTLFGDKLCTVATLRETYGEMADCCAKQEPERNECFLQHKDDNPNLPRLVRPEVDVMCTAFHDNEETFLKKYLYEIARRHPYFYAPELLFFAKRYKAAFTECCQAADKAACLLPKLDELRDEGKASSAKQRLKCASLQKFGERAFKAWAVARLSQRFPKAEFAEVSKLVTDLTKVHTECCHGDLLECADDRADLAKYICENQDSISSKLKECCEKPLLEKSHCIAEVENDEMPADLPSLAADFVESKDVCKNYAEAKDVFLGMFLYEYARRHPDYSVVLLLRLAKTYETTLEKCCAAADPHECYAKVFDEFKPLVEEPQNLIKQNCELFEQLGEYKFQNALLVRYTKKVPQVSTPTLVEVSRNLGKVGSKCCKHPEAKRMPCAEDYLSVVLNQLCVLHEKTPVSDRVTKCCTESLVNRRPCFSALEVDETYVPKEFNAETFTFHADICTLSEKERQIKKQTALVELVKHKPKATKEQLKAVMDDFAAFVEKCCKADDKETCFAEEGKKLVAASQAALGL

Compound: CCc1c2c(nc3ccc(OC(=O)N4CCC(N5CCCCC5)CC4)cc13)-c1cc3c(c(=O)n1C2)COC(=O)[C@]3(O)CC [CAMPTOSAR®, irinotecan]
- 62-day survivors (of 10 mice) ([1]; Group 5: 100 mg/kg I.P., qwk×3): one
- complete regression (CR) responses on Day 62 ([1]; Group 5: 100 mg/kg I.P., qwk×3, 100 mg/kg): single and one

Compound: CN(C)/N=N/c1[nH]cnc1C(N)=O [DTIC®, dacarbazine]
- toxic deaths (of 10 mice) [2]: one and One

Compound: CC[C@@]1(O)C(=O)OCc2c1cc1n(c2=O)Cc2cc3c(CN(C)C)c(O)ccc3nc2-1 [HYCAMTIN®, topotecan]
- 62-day survivors (of 10 mice) ([1]; Group 6: 10 mg/kg I.P., q4d×4): one
- complete regression (CR) responses on Day 62 ([1]; Group 6: 10 mg/kg I.P., q4d×4, 10 mg/kg): single and one

Compound: CC[C@@](O)(C(=O)[O-])c1cc2n(c(=O)c1CO)Cc1cc3ccccc3nc1-2.[Na+] [Sodium camptothecin]
- clinical activity [3]: antitumor activity
- clinical side effects [3]: unpredictable side effects such as myelosuppression and hemorrhagic cystitis

Compound: CC[C@@]1(O)C(=O)OCc2c1cc1n(c2=O)Cc2cc3ccccc3nc2-1 [camptothecin, 20(S)-camptothecin]
- affinity of HSA for the carboxylate form relative to the α-hydroxy lactone form [4]: 150 fold
